{
  "source": "paper PMC4729137",
  "about": "“Functional analysis of androgen receptor mutations that confer anti-androgen resistance identified in circulating cell-free DNA from prostate cancer patients” (Genome Biology, 2016)",
  "key": {"[1]": {"molecular_target": "T1, H875Q-AR (Homo sapiens, UniProt P10275, H875Q)", "T1 sequence (P10275 1-920 H875Q)": "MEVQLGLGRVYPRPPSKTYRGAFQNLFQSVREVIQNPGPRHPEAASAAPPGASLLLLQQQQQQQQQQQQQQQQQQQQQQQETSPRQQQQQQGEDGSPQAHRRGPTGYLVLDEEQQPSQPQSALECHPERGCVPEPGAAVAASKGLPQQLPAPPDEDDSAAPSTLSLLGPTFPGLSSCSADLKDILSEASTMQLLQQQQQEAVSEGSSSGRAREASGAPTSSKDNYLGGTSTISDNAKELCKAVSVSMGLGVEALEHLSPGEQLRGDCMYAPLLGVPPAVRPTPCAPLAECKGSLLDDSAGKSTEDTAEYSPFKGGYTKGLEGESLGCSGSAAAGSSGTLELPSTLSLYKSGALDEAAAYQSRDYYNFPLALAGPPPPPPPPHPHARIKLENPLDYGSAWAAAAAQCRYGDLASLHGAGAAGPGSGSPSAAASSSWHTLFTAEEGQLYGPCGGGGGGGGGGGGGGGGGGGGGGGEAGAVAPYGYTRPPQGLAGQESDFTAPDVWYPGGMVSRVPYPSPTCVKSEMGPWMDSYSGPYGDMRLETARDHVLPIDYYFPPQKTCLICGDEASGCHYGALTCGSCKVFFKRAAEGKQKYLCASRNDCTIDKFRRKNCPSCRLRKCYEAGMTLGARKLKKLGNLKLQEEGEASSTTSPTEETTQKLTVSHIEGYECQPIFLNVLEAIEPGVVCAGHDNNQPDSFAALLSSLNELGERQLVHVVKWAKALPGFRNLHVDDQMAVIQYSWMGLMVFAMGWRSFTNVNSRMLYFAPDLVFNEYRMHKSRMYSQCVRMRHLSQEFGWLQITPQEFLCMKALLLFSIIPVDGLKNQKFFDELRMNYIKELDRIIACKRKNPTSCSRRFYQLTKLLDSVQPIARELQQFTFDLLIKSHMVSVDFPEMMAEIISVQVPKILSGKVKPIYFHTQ", "test": "cell-based"}, "[2]": {"molecular_target": "T2, M896T-AR (Homo sapiens, UniProt P10275, M896T)", "T2 sequence (P10275 1-920 M896T)": "T1 sequence (P10275 1-920 H875Q) with Q875H, M896T", "test": "cell-based"}},
  "note": "Changes are numbered by the printed parent chain.",
  "data": [
    {"smiles": "C[C@]12CCC(=O)C=C1CC[C@@H]1[C@@H]2[C@@H](O)C[C@@]2(C)[C@H]1CC[C@]2(O)C(=O)CO", "note": "[hydrocortisone]", "values": [
      {"measurement": "EC50", "setting": "[1]", "value": "> 500", "unit": "nM"},
      {"measurement": "EC50", "setting": "[2]", "value": "> 500", "unit": "nM"}
    ]}
  ]
}
